According to patent US7625711B2, “Screening method for the identification of a drug for the development of an agent for prevention and/or treatment of Alzheimer's disease” (Hisamitsu Pharmaceutical Co., Inc., priority 2003, dated 2009):

Tests used:
Type in all cases: cell-based, human
SH-SY5Y cells = assay: Cell viability assay (MTT method) after cisplatin treatment; settings: SH-SY5Y cells treated with cisplatin, FIG. 14
Experimental: SH-SY5Y cells, which are a neuroblastoma cell line, are used as tumor cells. SH-SY5Y cells are treated with cisplatin, and then the cell viability is measured by the MTT method. FIG. 14 is a graph showing the relationship between the amount of cisplatin and the cell viability of SH-SY5Y cells. The cell viability was determined by a modified 3-(4,5-dimethylthiazol-2-yl)-2,5-diphenyltetrazolium bromide (MTT) assay. Specifically, […] cells were plated on 100 μl of complete medium in a 96-well micro titer plate (5×10^3 cells/well), and made to adhere thereto. On the next day, the medium was changed, and the cells were treated with cisplatin for 24 hours. In the MTT assay, 10 μl of MTT solution was added to each well, and incubated at 37° C. for 3 hours. The absorbance of the wells at 570 nm was measured using a microplate reader (Type 450, Bio-Rad Laboratories).

p53 = assay: Immunoblotting of cisplatin-treated SH-SY5Y cells with anti-p53 antibody; settings: FIG. 15
Experimental: (§1) Next, products obtained by cisplatin treatment of SH-SY5Y cells are analyzed by immunoblotting and immunoprecipitation. Specifically, SH-SY5Y cells are treated with cisplatin, and then the expression levels of p53, p21, βAPP and actin are analyzed by immunoblotting. Moreover, an interaction between a βAPP-derived product and p53 is analyzed by immunoprecipitation and immunoblotting. FIG. 15 is diagrams showing the result of immunoblotting analysis of products obtained by cisplatin treatment of SH-SY5Y cells. In the figure, “IP” means immunoprecipitation, and “IB” means immunoblotting. The second diagram from the top in FIG. 15 is a diagram showing the result of immunoblotting analysis using anti-p53 antibody. […] The third diagram from the top in FIG. 15 is a diagram showing the result of immunoblotting analysis using anti-p21 antibody. […] The uppermost diagram in FIG. 15 is a diagram showing the result of immunoprecipitation of a cell lysate (homogenate) using anti-βAPP antibody, and immunoblotting analysis of the immunoprecipitate using anti-p53 antibody. […] Since βAPP is present on the membrane and p53 is present in the nucleus, it is unlikely that there is physical binding therebetween.

p21 = assay: Immunoblotting of cisplatin-treated SH-SY5Y cells with anti-p21 antibody; settings: FIG. 15
Experimental: as §1

[1] = tested on: βAPP-derived product and p53; assay: Immunoprecipitation with anti-βAPP antibody and immunoblotting with anti-p53 antibody of cisplatin-treated SH-SY5Y cells; settings: SH-SY5Y cell lysate, IP anti-βAPP, IB anti-p53, FIG. 15
Experimental: as §1

`N.N.[Cl][Pt][Cl]` [cisplatin] was tested, and the “cell viability of SH-SY5Y cells” value (SH-SY5Y cells) was “the number of SH-SY5Y cells decreases depending on the dosage of cisplatin”, the “induction of endogenous p53” value (p53) was “the induction of endogenous p53 by cisplatin can be seen” and the “expression of p21” value (p21) was “p53 expressed during the cisplatin treatment promotes the expression of p21”. The “physical binding between a βAPP-derived product and p53” value [1] was “p53 is present in the cisplatin treatment group”.
